Common to all, as to type: functional
Assay [1] deals with Schistosoma mansoni. The assay can be described thus: Antischistosomal activity against Schistosoma mansoni miracidia assessed as worm death incubated for 1 to 2 hrs by microscopic method relative to control. The settings on record: time 1-2 hrs.
For assay [2], the system named is Schistosoma mansoni. The assay can be described thus: Antischistosomal activity against Schistosoma mansoni cercariae assessed as worm death incubated for 2 hrs by microscopic method relative to control.
The test system of assay [3] is Schistosoma japonicum. The assay can be described thus: Antischistosomal activity against juvenile Schistosoma japonicum infected in ICR mouse assessed as reduction in worm burden at 8 mg/kg, ip administered for 5 consecutive days. The arrangement: scale not given: the % may be the effect or the level left.
Assay [4] relates to Schistosoma mansoni. The assay can be described thus: Antischistosomal activity against juvenile Schistosoma mansoni infected in ICR mouse assessed as reduction in worm burden at 8 mg/kg, ip administered for 5 consecutive days. The arrangement: scale not given: the % may be the effect or the level left.
Assay [5] has as its system Schistosoma japonicum. The assay can be described thus: Antischistosomal activity against larva Schistosoma japonicum infected in ICR mouse assessed as reduction in worm burden at 8 mg/kg, ip administered for 5 consecutive days. The arrangement: scale not given: the % may be the effect or the level left.
In assay [6] the test system is Schistosoma mansoni. Kind of assay: Antischistosomal activity against larva Schistosoma mansoni infected in ICR mouse assessed as reduction in worm burden at 8 mg/kg, ip administered for 5 consecutive days. The arrangement: scale not given: the % may be the effect or the level left.
The test system of assay [7] is Schistosoma japonicum. The assay can be described thus: Antischistosomal activity against adult Schistosoma japonicum infected in ICR mouse assessed as reduction in worm burden at 8 mg/kg, ip administered for 5 consecutive days. The arrangement: scale not given: the % may be the effect or the level left.
Assay [8] concerns Schistosoma mansoni. Kind of assay: Antischistosomal activity against adult Schistosoma mansoni infected in ICR mouse assessed as reduction in worm burden at 8 mg/kg, ip administered for 5 consecutive days. The arrangement: scale not given: the % may be the effect or the level left.
For assay [9], the system named is Schistosoma mansoni. The assay can be described thus: Antischistosomal activity against Schistosoma mansoni LE assessed as reduction in worm motor activity at 100 uM measured after 72 hrs relative to control. The arrangement: scale not given: the % may be the effect or the level left.
Assay [10] relates to Schistosoma mansoni. The assay can be described thus: Antischistosomal activity against Schistosoma mansoni LE assessed as worm mortality at 200 uM measured after 24 hrs relative to control.
In assay [11] the test system is Schistosoma mansoni. The assay can be described thus: Antischistosomal activity against Schistosoma mansoni BH infected in Balb/C mouse assessed as reduction in worm burden at 100 mg/kg, po measured after 2 weeks by Kato-Katz quantitative method. The arrangement: Activity: scale not given: the % may be the effect or the level left.
Assay [12] concerns Schistosoma mansoni. The assay can be described thus: Antischistosomal activity against Schistosoma mansoni BH assessed as worm death at 12.5 to 100 uM measured up to 72 hrs by light microscopic method relative to control. The note with it: dose 12.5-100 µM, time hrs <=72.
The test system of assay [13] is Schistosoma mansoni. The assay can be described thus: Antischistosomal activity against Schistosoma mansoni BH assessed as tegument damage at 12.5 to 100 uM measured up to 72 hrs by confocal laser scanning microscopic method relative to control. The settings on record: dose 12.5-100 µM, time hrs <=72.
Assay [14] concerns Schistosoma mansoni. The assay can be described thus: Antischistosomal activity against Schistosoma mansoni BH assessed as reduction in motor activity at 12.5 to 100 uM measured up to 72 hrs by light microscopic method relative to control. The arrangement: scale not given: the % may be the effect or the level left. The note with it: dose 12.5-100 µM, time hrs <=72.
In assay [15] the test system is Schistosoma mansoni. Kind of assay: Antischistosomal activity against Schistosoma mansoni LE assessed as reduction in egg population at 100 uM measured after 72 hrs by inverted microscopy relative to control. The arrangement: scale not given: the % may be the effect or the level left.
The test system of assay [16] is Schistosoma mansoni. The assay can be described thus: Antischistosomal activity against Schistosoma mansoni LE schistosomula measured every 24 hrs for 72 hrs by inverted microscopy.
The test system of assay [17] is Schistosoma mansoni. The assay can be described thus: Antischistosomal activity against Schistosoma mansoni LE infected in BALB/c mouse assessed as reduction in egg burden at 50 mg/kg, ip administered for 5 consecutive days starting from day 37 post infection by microscopic method relative to control. The arrangement: scale not given: the % may be the effect or the level left.

The test system of assay [18] is Schistosoma mansoni. The assay can be described thus: Antischistosomal activity against Schistosoma mansoni LE infected in BALB/c mouse assessed as reduction in worm burden at 50 mg/kg, ip administered for 5 consecutive days starting from day 37 post infection by microscopic method relative to control. The arrangement: scale not given: the % may be the effect or the level left.

Assay [19] deals with Schistosoma mansoni. Kind of assay: Antischistosomal activity against Schistosoma mansoni LE assessed as reduction in egg development by measuring developed eggs at 100 uM measured after 5 days relative to control. The settings on record: time 5 day. The arrangement: scale not given: the % may be the effect or the level left.
For assay [20], the system named is Schistosoma mansoni. The assay can be described thus: Antischistosomal activity against juvenile Schistosoma mansoni LE measured every 24 hrs for 72 hrs by inverted microscopy.
In assay [21] the test system is Schistosoma mansoni. Kind of assay: Antischistosomal activity against Schistosoma mansoni LE infected in BALB/c mouse assessed as reduction in egg burden at 10 mg/kg, ip administered for 5 consecutive days starting from day 37 post infection by microscopic method relative to control. The arrangement: scale not given: the % may be the effect or the level left.
The subject of assay [22] is Schistosoma mansoni. The assay can be described thus: Antischistosomal activity against Schistosoma mansoni LE infected in BALB/c mouse assessed as reduction in worm burden at 50 mg/kg, ip administered for 5 consecutive days starting from day 1 post infection by microscopic method relative to control. The arrangement: scale not given: the % may be the effect or the level left.

Assay [23] deals with Schistosoma mansoni. Kind of assay: Antischistosomal activity against Schistosoma mansoni LE infected in BALB/c mouse assessed as reduction in egg burden at 100 mg/kg, ip administered for 5 consecutive days starting from day 1 post infection by microscopic method relative to control. The arrangement: scale not given: the % may be the effect or the level left.
Assay [24] relates to Schistosoma mansoni. Kind of assay: Antischistosomal activity against Schistosoma mansoni LE infected in BALB/c mouse assessed as reduction in egg burden at 50 mg/kg, ip administered for 5 consecutive days starting from day 1 post infection by microscopic method relative to control. The arrangement: scale not given: the % may be the effect or the level left.
Assay [25] has as its system Schistosoma mansoni. The assay can be described thus: Antischistosomal activity against Schistosoma mansoni LE infected in BALB/c mouse assessed as reduction in worm burden at 50 mg/kg, ip administered for 5 consecutive days starting from day 23 post infection by microscopic method relative to control. The arrangement: scale not given: the % may be the effect or the level left.

In assay [26] the test system is Schistosoma mansoni. Kind of assay: Antischistosomal activity against Schistosoma mansoni LE infected in BALB/c mouse assessed as reduction in worm burden at 10 mg/kg, ip administered for 5 consecutive days starting from day 1 post infection by microscopic method relative to control. The arrangement: scale not given: the % may be the effect or the level left.
Assay [27] has as its system Schistosoma mansoni. Kind of assay: Antischistosomal activity against Schistosoma mansoni LE infected in BALB/c mouse assessed as reduction in egg burden at 10 mg/kg, ip administered for 5 consecutive days starting from day 23 post infection by microscopic method relative to control. The arrangement: scale not given: the % may be the effect or the level left.
Assay [28] has as its system Schistosoma mansoni. The assay can be described thus: Antischistosomal activity against Schistosoma mansoni LE infected in BALB/c mouse assessed as reduction in egg burden at 10 mg/kg, ip administered for 5 consecutive days starting from day 1 post infection by microscopic method relative to control. The arrangement: scale not given: the % may be the effect or the level left.

In assay [29] the test system is Schistosoma mansoni. Kind of assay: Antischistosomal activity against Schistosoma mansoni LE infected in BALB/c mouse assessed as reduction in worm burden at 100 mg/kg, ip administered for 5 consecutive days starting from day 23 post infection by microscopic method relative to control. The arrangement: scale not given: the % may be the effect or the level left.
In assay [30] the test system is Schistosoma mansoni. The assay can be described thus: Antischistosomal activity against Schistosoma mansoni LE infected in BALB/c mouse assessed as reduction in worm burden at 10 mg/kg, ip administered for 5 consecutive days starting from day 37 by microscopic method relative to control. The arrangement: scale not given: the % may be the effect or the level left.

Assay [31] concerns Schistosoma mansoni. The assay can be described thus: Antischistosomal activity against adult Schistosoma mansoni LE measured every 24 hrs for 72 hrs by inverted microscopy.
Assay [32] relates to Schistosoma mansoni. Kind of assay: Antischistosomal activity against Schistosoma mansoni LE infected in BALB/c mouse assessed as reduction in egg burden at 50 mg/kg, ip administered for 5 consecutive days starting from day 23 post infection by microscopic method relative to control. The arrangement: scale not given: the % may be the effect or the level left.
Assay [33] has as its system Schistosoma mansoni. Kind of assay: Antischistosomal activity against Schistosoma mansoni LE infected in BALB/c mouse assessed as reduction in egg burden at 100 mg/kg, ip administered for 5 consecutive days starting from day 23 post infection by microscopic method relative to control. The arrangement: scale not given: the % may be the effect or the level left.
Assay [34] concerns Schistosoma mansoni. The assay can be described thus: Antischistosomal activity against Schistosoma mansoni LE infected in BALB/c mouse assessed as reduction in worm burden at 100 mg/kg, ip administered for 5 consecutive days starting from day 37 post infection by microscopic method relative to control. The arrangement: scale not given: the % may be the effect or the level left.

For assay [35], the system named is Schistosoma mansoni. The assay can be described thus: Antischistosomal activity against Schistosoma mansoni LE infected in BALB/c mouse assessed as reduction in worm burden at 100 mg/kg, ip administered for 5 consecutive days starting from day 1 post infection by microscopic method relative to control. The arrangement: scale not given: the % may be the effect or the level left.

For assay [36], the system named is Schistosoma mansoni. The assay can be described thus: Antischistosomal activity against Schistosoma mansoni LE infected in BALB/c mouse assessed as reduction in worm burden at 10 mg/kg, ip administered for 5 consecutive days starting from day 23 by microscopic method relative to control. The arrangement: scale not given: the % may be the effect or the level left.

Assay [37] deals with Schistosoma mansoni. Kind of assay: Antischistosomal activity against Schistosoma mansoni LE infected in BALB/c mouse assessed as reduction in egg burden at 100 mg/kg, ip administered for 5 consecutive days starting from day 37 post infection by microscopic method relative to control. The arrangement: scale not given: the % may be the effect or the level left.

The values below come from ChEMBL document CHEMBL4811216, “Chemotherapy for human schistosomiasis: how far have we come? What's new? Where do we go from here?” (RSC Med Chem, 2020).

`CC1=CC(=O)CC(C)(C)C1(O)/C=C/C(C)O[C@@H]1O[C@H](COC(=O)c2cc(O)c(O)c(O)c2)[C@@H](O)[C@H](O)[C@H]1O` (some centres not stated): the values for the mortality in the assay on Schistosoma mansoni [1] and in the assay on Schistosoma mansoni [2] were 99.7% and 41%, respectively.

Turning to `C[C@@H]1O[C@@H](O[C@@H]2C[C@@H](O[C@@H]3O[C@H](CO)[C@@H](O)[C@H](O)[C@H]3O)CO[C@H]2O[C@H]2CC[C@]3(C)[C@H]4CC=C5[C@@H]6CC(C)(C)CC[C@]6(C(=O)O)CC[C@@]5(C)[C@]4(C)CC[C@H]3C2(C)C)[C@H](O)[C@H](O)[C@H]1O`, the Activity in the assay with Schistosoma japonicum [3] is 59.9%; in the assay with Schistosoma mansoni [4], 68.3%; in the assay on Schistosoma japonicum [5], 90%; with Schistosoma mansoni [6], 88.6%; in the assay with Schistosoma japonicum [7], 53.2%; in the assay on Schistosoma mansoni [8], 70.6%.

Consider `COC(=O)/C=C/c1ccc2c(c1)[C@@H](C(=O)OC)[C@H](c1ccc(OC(C)=O)cc1)O2`, for which the Activity with Schistosoma mansoni [9] and with Schistosoma mansoni [10] was 100% in each case.

Consider `C=C1C(=O)O[C@@H]2C3O[C@]3(C)CC/C=C(\C)CC[C@@H]12` (some centres not stated), for which the Activity amounted to 64.1% with Schistosoma mansoni [11], 100% in the assay on Schistosoma mansoni [13] and 100% with Schistosoma mansoni [14]. Moreover, the mortality in the assay with Schistosoma mansoni [12] was found to be 100%.

Consider `O=C1OC[C@@H](Cc2cc3c(cc2[N+](=O)[O-])OCO3)[C@@H]1Cc1cc2c(cc1[N+](=O)[O-])OCO2`, for which the Activity in the assay on Schistosoma mansoni [15] is on record as greater than 83%; in the assay with Schistosoma mansoni [17], 52%; in the assay with Schistosoma mansoni [18], 36%; with Schistosoma mansoni [19], less than 10%; with Schistosoma mansoni [21], 40%; in the assay on Schistosoma mansoni [22], 36%. In addition, the Activity in the assay with Schistosoma mansoni [23] is 16%; with Schistosoma mansoni [24] it was 52%; in the assay with Schistosoma mansoni [25], 36%; in the assay with Schistosoma mansoni [26] it was 33%; in the assay on Schistosoma mansoni [27] it was 40%; in the assay on Schistosoma mansoni [28] it was 40%. Moreover, the Activity in the assay on Schistosoma mansoni [29] came to 39%; in the assay with Schistosoma mansoni [30], 33%; in the assay with Schistosoma mansoni [32], 52%; in the assay with Schistosoma mansoni [33], 16%; in the assay with Schistosoma mansoni [34], 39%; in the assay on Schistosoma mansoni [35], 39%. Further, the figures for the Activity in the assay on Schistosoma mansoni [36] and with Schistosoma mansoni [37] were 33% and 16%, respectively. The LC50 was 20.4 µM with Schistosoma mansoni [16], 180 µM in the assay on Schistosoma mansoni [20] and 102 µM in the assay with Schistosoma mansoni [31].

One may read the mortality as the share of the test organisms that died. By LC50 is commonly meant the concentration that kills 50% of the test population.
